This passage reports melting point results from patent US11607419B2, “Inhibitors of RAC1 and uses thereof for inducing bronchodilatation” (INSTITUT NATIONAL DE LA SANTE ET DE LA RECHERCHE MEDICALE …, priority 2017, dated 2023).

Each structure is given as a SMILES string.

By melting point is commonly meant the temperature of the solid-liquid transition.

In turn, `COc1ccc(OC)c(NS(=O)(=O)c2ccc(NC(=O)C#C[Si](C)(C)C)cc2)c1` had a melting point of 84 °C.
With `COc1ccc(OC)c(NS(=O)(=O)c2ccc(NC(=O)CCCc3ccc(C)cc3)cc2)c1` [(3), N-(4-(N-(2,5-dimethoxyphenyl)sulfamoyl)phenyl)-4-(p-tolyl) butanamide] the figure was 126 °C; with `COc1ccc(OC)c(NS(=O)(=O)c2ccc(NC(=O)CSc3ccc(C)cc3)cc2)c1` [(4)], 126 °C.
With `COc1ccc(OC)c(NC(=O)c2ccc(NC(=O)CCSc3ccc(C)cc3)cc2)c1` [(7), N-(2,5-dimethoxyphenyl)-4-(3-(p-tolylthio)propanamido) benzamide] the figure was 153 °C.
With `COc1ccc(OC)c(NS(=O)(=O)c2ccc(NC(=O)CCCSc3ccc(C)cc3)cc2)c1` [(8)] the figure was 153 °C.
`COc1ccc(OC)c(NS(=O)(=O)c2ccc([N+](=O)[O-])cc2)c1` [(9), N-(2,5-dimethoxyphenyl)-4-nitrobenzenesulfonamide] displayed a melting point of 165 °C.
On to `COc1ccc(OC)c(NS(=O)(=O)c2ccc(N)cc2)c1` [(10), 4-amino-N-(2,5-dimethoxyphenyl)benzenesulfonamide], for which the melting point was determined as 126 °C.
With `CCC(=O)Nc1ccc(S(=O)(=O)Nc2cc(OC)ccc2OC)cc1` [(11), N-(4-(N-(2,5-dimethoxyphenyl)sulfamoyl)phenyl) propionamide] the figure was 170 °C; with `C=CC(=O)Nc1ccc(S(=O)(=O)N(C(=O)C=C)c2cc(OC)ccc2OC)cc1` [(16), N-acryloyl-N′-(4-(N-(2,5-dimethoxyphenyl)sulfamoyl)phenyl) acrylamide], 220.8 °C; with `COc1cccc(NS(=O)(=O)c2ccc([N+](=O)[O-])cc2)c1` [(21), N-(3-methoxyphenyl)-4-nitrobenzenesulfonamide], 119.4 °C.
With `COc1cccc(NS(=O)(=O)c2ccc(NC(=O)CCSc3ccc(C)cc3)cc2)c1` [(23), N-(4-(N-(3-methoxyphenyl)sulfamoyl)phenyl)-3-(p-tolylthio) propanamide] the figure was 156.8 °C; with `COc1ccc(OC)c(NS(=O)(=O)c2ccc(NC(=O)CC[S+]([O-])c3ccc(C)cc3)cc2)c1` (stereo not shown) [(24), N-(4-(N-(2,5-dimethoxyphenyl)sulfamoyl)phenyl)-3-(p-tolylsulfinyl)propanamide], 148.1 °C.
Then `COc1ccc(OC)c(NS(=O)(=O)c2ccc(NC(=O)CCS(=O)(=O)c3ccc(C)cc3)cc2)c1` [(25), N-(4-(N-(2,5-dimethoxyphenyl)sulfamoyl)phenyl)-3-tosyl-propanamide], with 180.3 °C; and `COc1ccc(OC)c(N(C)S(=O)(=O)c2ccc(NC(=O)CCSc3ccc(C)cc3)cc2)c1` [(26), N-(4-(N-(2,5-dimethoxyphenyl)-N-methylsulfamoyl)phenyl)-3-(p-tolylthio)propanamide], with 48 °C.
Regarding `C#CC(=O)Nc1ccc(S(=O)(=O)Nc2cc(OC)ccc2OC)cc1` [(27), N-(4-(N-(2,5-dimethoxyphenyl)sulfamoyl)phenyl) propiolamide], the melting point came to 200 °C.
With `Cc1ccc(SCCC(=O)Nc2ccc(S(=O)(=O)Nc3ccccc3F)cc2)cc1` [(30), N-(4-(N-(2-fluorophenyl)sulfamoyl)phenyl)-3-(p-tolylthio) propanamide] the figure was 162 °C.
With `COc1ccc(OC)c(NS(=O)(=O)c2ccc(NC(=O)CCl)cc2)c1` [(31), 2-chloro-N-(4-(N-(2,5-dimethoxyphenyl)sulfamoyl)phenyl) acetamide] the figure was 190 °C.
Then `COc1ccc(NS(=O)(=O)c2ccc([N+](=O)[O-])cc2)c(OC)c1` [Example 1, N-(2,4-dimethoxyphenyl)-4-nitrobenzenesulfonamide], with 161 °C; and `O=[N+]([O-])c1ccc(S(=O)(=O)Nc2ccccc2F)cc1` [Example 5], with 166 °C.
